This is an account of results in article PMC6271425, “Synthesis and Sar Study of Diarylpentanoid Analogues as New Anti-Inflammatory Agents” (Molecules, 2014).

The term inhibition denotes the percentage by which the read-out fell short of the control.

“Also recorded” adds a separate entry of the source.

The subject of the first data set is NO production in IFN-γ/LPS-stimulated RAW 264.7 macrophages. The data set can be described thus: NO suppression (Griess nitrite determination) in IFN-γ/LPS-stimulated RAW 264.7 macrophages. The data set is classed as cell-based, murine. The settings on record: 50 µM test concentration; IFN-γ/LPS-stimulated RAW 264.7 cells; 50 µM. As for the experimental part: The synthesized compounds were screened for NO suppression activity in IFN-γ/LPS-stimulated RAW 264.7 macrophages at a 50 µM test concentration. […] The IC50 values of the fifty-seven bioactive compounds were determined and compared to that of the positive control, curcumin. An MTT assay was also carried out to confirm that NO inhibition was not due to cytotoxicity. […] The complete bioassay results of all the compounds are provided as Table S2 in Supplementary Data. RAW 264.7 murine macrophages cells obtained from American Type Culture Collection (ATCC, Rockville, MD, USA) were grown in Dulbecco’s Modified Eagle’s Medium (DMEM) containing 10% fetal bovine serum (FBS) and 1% penicillin/streptomycin in a 95% air and 5% CO2 atmosphere at 37 °C. RAW 264.7 cells at 90%–95% confluency were detached and seeded (50,000 cells/well) into a 96-well culture plate with 50 μL of DMEM and incubated for 24 h. The cells were then stimulated in […] of LPS (Escherichia coli, serotype 0111:B4) and 1 ng/ml of interferon-gamma (IFN-γ) in the presence or absence of test compounds for 17 h. Nitrite concentration was then determined by Griess assay by reacting 50 μL of cell culture supernatant with 50 μL of Griess reagent (1% sulfanilamide and 0.1% N-(1-naphthyl)ethylenediamine dihydrochloride in 2.5% phosphoric acid) at room temperature. The optical density was measured at 550 nm after 5 min of incubation at room temperature with a microplate reader.
On the technique in general: The Griess reaction detects nitrite, a stable product of nitric oxide.
As for `O=C(/C=C(O)/C=C/c1cccc(O)c1)c1cc(O)ccc1O` [Compound 90], the “NO Inhibition at 50 µM (%) ± S.E.M” value amounted to 90.9 ± 2.0%.

Take `O=C(/C=C(O)/C=C/c1ccco1)c1cc(O)ccc1O` [Compound 91]: the “NO Inhibition at 50 µM (%) ± S.E.M” value is 83.6 ± 2.8%.

Turning to `O=C(/C=C(O)/C=C/c1ccccc1)c1ccc(O)cc1O` [Compound 93], the “NO Inhibition at 50 µM (%) ± S.E.M” value was determined as 94.7 ± 2.3%.

For the molecule `O=C(/C=C(O)/C=C/c1cccc(O)c1)c1ccc(O)cc1O` [Compound 94], the “NO Inhibition at 50 µM (%) ± S.E.M” value is 95.4 ± 1.5%.

As for `O=C(/C=C(O)/C=C/c1ccc(O)c(O)c1)c1ccccc1O` [Compound 97], the “NO Inhibition at 50 µM (%) ± S.E.M” value is reported as 98.9 ± 1.6%.

Take `COc1cc(/C=C/C(=O)CC(=O)/C=C/c2ccc(O)c(OC)c2)ccc1O` [Curcumin, curcumin, reference compound]: the “NO Inhibition at 50 µM (%) ± S.E.M” value is on record as 99.3 ± 0.2%.

The same data set, now with this note: IFN-γ/LPS-stimulated RAW 264.7 cells; read-out: NO Inhibition IC50 (µM) ± S.E.M.
Consider `O=C(/C=C(O)/C=C/c1ccccc1O)c1cc(Cl)ccc1O` [Compound 84], for which the IC50 is < 20 µM.

Turning to `COc1cc(/C=C/C(=O)CC(=O)/C=C/c2ccc(O)c(OC)c2)ccc1O` [Curcumin, curcumin, reference compound], the IC50 was found to be 14.7 ± 0.2 µM.

Still in this data set, the particulars now being: Mus musculus, RAW264.7, 50 µM test concentration; IFN-γ/LPS-stimulated RAW 264.7 cells; read-out: NO Inhibition at 50 µM (%) ± S.E.M.
Regarding `O=C(/C=C(O)/C=C/c1ccccc1O)c1cc(Cl)ccc1O` [Compound 84], the inhibition at 50 µM stood at 95.2 ± 0.9%.

Turning to `O=C(/C=C(O)/C=C/c1cccc(O)c1)c1cc(O)ccc1O` [Compound 90], the inhibition at 50 µM stood at 90.9 ± 2.02%.

`O=C(/C=C(O)/C=C/c1ccco1)c1cc(O)ccc1O` [Compound 91]: the inhibition at 50 µM was 83.6 ± 2.84%.

With `O=C(/C=C(O)/C=C/c1ccccc1)c1ccc(O)cc1O` [Compound 93], the inhibition at 50 µM stood at 94.7 ± 2.28%.

`O=C(/C=C(O)/C=C/c1cccc(O)c1)c1ccc(O)cc1O` [Compound 94]: the inhibition at 50 µM came out at 95.4 ± 1.45%.

Take `O=C(/C=C(O)/C=C/c1ccc(O)c(O)c1)c1ccccc1O` [Compound 97]: the inhibition at 50 µM amounted to 98.9 ± 1.58%.

On to `COc1cc(/C=C/C(=O)CC(=O)/C=C/c2ccc(O)c(OC)c2)ccc1O` [Curcumin, curcumin, reference compound], for which the inhibition at 50 µM amounted to 99.33 ± 0.2%.

Staying with this data set, now noted: Mus musculus, RAW264.7, IFN-γ/LPS-stimulated RAW 264.7 cells; read-out: NO Inhibition IC50 (µM) ± S.E.M.
Consider `O=C(/C=C(O)/C=C/c1ccccc1O)c1cc(Cl)ccc1O` [Compound 84], for which the IC50 worked out at 15.9 ± 0.947 µM.

In the case of `O=C(/C=C(O)/C=C/c1ccco1)c1cc(O)ccc1O` [Compound 91], the IC50 came to 75 ± 4.9 µM.

Turning to `O=C(/C=C(O)/C=C/c1ccccc1)c1ccc(O)cc1O` [Compound 93], the IC50 came out at 29.9 ± 0.444 µM.

Turning to `O=C(/C=C(O)/C=C/c1cccc(O)c1)c1ccc(O)cc1O` [Compound 94], the IC50 was 24.8 ± 0.4 µM.

For the molecule `O=C(/C=C(O)/C=C/c1ccc(O)c(O)c1)c1ccccc1O` [Compound 97], the IC50 came to 9.56 ± 0.468 µM.

On to `COc1cc(/C=C/C(=O)CC(=O)/C=C/c2ccc(O)c(OC)c2)ccc1O` [Curcumin, curcumin, reference compound], for which the IC50 was 14.7 ± 0.24 µM.

Still in this data set, the particulars now being: Mus musculus, RAW264.7, Table 6, NO suppression IC50 used for QSAR; unit inferred; read-out: IC50.
Take `O=C(/C=C(O)/C=C/c1ccccc1O)c1cc(Cl)ccc1O` [Compound 84]: the IC50 was 15.9 ± 0.9 µM.

On to `O=C(/C=C(O)/C=C/c1ccco1)c1cc(O)ccc1O` [Compound 91], for which the IC50 came out at 75 ± 4.9 µM.

In the case of `O=C(/C=C(O)/C=C/c1ccccc1)c1ccc(O)cc1O` [Compound 93], the IC50 is 29.9 ± 0.4 µM.

Turning to `O=C(/C=C(O)/C=C/c1cccc(O)c1)c1ccc(O)cc1O` [Compound 94], the IC50 came out at 24.8 ± 0.4 µM.

Turning to `O=C(/C=C(O)/C=C/c1ccc(O)c(O)c1)c1ccccc1O` [Compound 97], the IC50 is 9.6 ± 0.5 µM.

Still in this data set, the particulars now being: Mus musculus, RAW264.7, −log IC50 of NO suppression; read-out: pIC50 (converted).
Regarding `O=C(/C=C(O)/C=C/c1ccccc1O)c1cc(Cl)ccc1O` [Compound 84], the IC50 was 15.8 µM.

Regarding `O=C(/C=C(O)/C=C/c1cccc(O)c1)c1cc(O)ccc1O` [Compound 90], the IC50 was 35.5 µM.

With `O=C(/C=C(O)/C=C/c1ccco1)c1cc(O)ccc1O` [Compound 91], the IC50 was 74.1 µM.

In the case of `O=C(/C=C(O)/C=C/c1ccccc1)c1ccc(O)cc1O` [Compound 93], the IC50 is 30.2 µM.

Take `O=C(/C=C(O)/C=C/c1cccc(O)c1)c1ccc(O)cc1O` [Compound 94]: the IC50 is 24.5 µM.

For `O=C(/C=C(O)/C=C/c1ccc(O)c(O)c1)c1ccccc1O` [Compound 97], the IC50 is 9.55 µM.

System in a further data set: not listed separately
The experiment in a line: Cell cytotoxicity determination (MTT assay). The data set is classed as cell-based, murine. The note with it: mouse, RAW 264.7 macrophage cells, RAW 264.7 cells, read-out: Cytotoxicity IC50 (µM) ± S.E.M. Here is the method: (§1) The synthesized compounds were screened for NO suppression activity in IFN-γ/LPS-stimulated RAW 264.7 macrophages at a 50 µM test concentration. […] The IC50 values of the fifty-seven bioactive compounds were determined and compared to that of the positive control, curcumin. An MTT assay was also carried out to confirm that NO inhibition was not due to cytotoxicity. […] The complete bioassay results of all the compounds are provided as Table S2 in Supplementary Data.
(§2) RAW 264.7 murine macrophages cells obtained from American Type Culture Collection (ATCC, Rockville, MD, USA) were grown in Dulbecco’s Modified Eagle’s Medium (DMEM) containing 10% fetal bovine serum (FBS) and 1% penicillin/streptomycin in a 95% air and 5% CO2 atmosphere at 37 °C.
(§3) Supernatant in each well was removed followed by addition of 100 µL DMEM. Subsequently, 20 µL of 3-(4,5-dimethylthiazol-2-yl)-2,5-diphenyltetrazolium bromide (MTT, 5 mg/mL) was then added and the plate was incubated in a 95% air and 5% CO2 atmosphere at 37 °C for 4 h. The mixture of culture media and MTT in all wells were removed and the purplish formazan crystals formed were dissolved in dimethyl sulfoxide (DMSO) and further incubated for 15 min at room temperature. The color intensity was then measured at 570 nm at room temperature.
On the technique in general: Tetrazolium assays rely on reduction of a dye to a coloured formazan, in cell work by metabolically active cells.
Regarding `O=C(/C=C(O)/C=C/c1ccccc1O)c1cc(Cl)ccc1O` [Compound 84], the IC50 was found to be 40.9 ± 1.63 µM.

As to `O=C(/C=C(O)/C=C/c1cccc(O)c1)c1cc(O)ccc1O` [Compound 90], the IC50 was > 100 µM.

Take `O=C(/C=C(O)/C=C/c1ccco1)c1cc(O)ccc1O` [Compound 91]: the IC50 is > 100 µM.

In the case of `O=C(/C=C(O)/C=C/c1ccccc1)c1ccc(O)cc1O` [Compound 93], the IC50 was 59.46 ± 0.511 µM.

Take `O=C(/C=C(O)/C=C/c1cccc(O)c1)c1ccc(O)cc1O` [Compound 94]: the IC50 was determined as 70.1 ± 1.8 µM.

On to `O=C(/C=C(O)/C=C/c1ccc(O)c(O)c1)c1ccccc1O` [Compound 97], for which the IC50 is > 100 µM.

`COc1cc(/C=C/C(=O)CC(=O)/C=C/c2ccc(O)c(OC)c2)ccc1O` [Curcumin, curcumin, reference compound]: the IC50 worked out at 28.8 ± 0.77 µM.

A further data set deals with RAW 264.7 cells. The data set can be described thus: Cell cytotoxicity determination (MTT assay). The data set is classed as cell-based, murine. The note with it: read-out: Cytotoxicity IC50 (µM) ± S.E.M. Here is the method:
as §1, §2, §3
On to `O=C(/C=C(O)/C=C/c1ccccc1O)c1cc(Cl)ccc1O` [Compound 84], for which the IC50 worked out at 53.1 ± 1 µM.

Take `O=C(/C=C(O)/C=C/c1cccc(O)c1)c1cc(O)ccc1O` [Compound 90]: the IC50 stood at 85 ± 1.4 µM.

On to `O=C(/C=C(O)/C=C/c1ccco1)c1cc(O)ccc1O` [Compound 91], for which the IC50 was 94.1 ± 0.9 µM.

In the case of `O=C(/C=C(O)/C=C/c1ccccc1)c1ccc(O)cc1O` [Compound 93], the IC50 was determined as 59.5 ± 0.5 µM.

Turning to `O=C(/C=C(O)/C=C/c1cccc(O)c1)c1ccc(O)cc1O` [Compound 94], the IC50 came out at 70.1 ± 1.8 µM.

Regarding `COc1cc(/C=C/C(=O)CC(=O)/C=C/c2ccc(O)c(OC)c2)ccc1O` [Curcumin, curcumin, reference compound], the IC50 worked out at 28.8 ± 0.8 µM.

System in a further data set: not listed separately
The experiment in a line: Chemical stability test (UV-visible spectra in phosphate buffer pH 7.4). In kind it is physicochemical. The settings on record: 20 μM in phosphate buffer pH 7.4, 1% DMSO, 30 min at 5-min intervals, 25 °C. As for the experimental part:
Poor chemical stability of curcumin has been proven as one of the important factors, which cause its low bioavailability. Therefore, in the present study, we further tested the two best compounds (88 and 97) for their chemical stability at physiological pH and compared it to that of curcumin used as reference. The test was carried out by observing the ultraviolet spectral changes of the targeted compounds for 30 minutes with 5-minutes intervals in phosphate buffer (pH 7.4). Figure 8, Figure 9 and Figure 10 depict the ultraviolet changes of curcumin, compound 88 and compound 97, respectively.
Absorbance readings were taken from 300–600 nm using a SpectraMax Plus 384 (Molecular Devices LLC, Sunnyvale, CA, USA). A stock solution of 50 mM curcumin or active compounds 88 and 97 were prepared and diluted by phosphate buffer (pH 7.4), containing 1% dimethyl sulfoxide (DMSO), to a final concentration of 20 μM. The ultraviolet absorption spectra were collected for over 30 min at 5-min intervals at 25 °C. All spectral measurements were carried out in a 1 cm path-length quartz cuvette.
Turning to `O=C(/C=C(O)/C=C/c1ccc(O)c(O)c1)c1ccccc1O` [Compound 97], the “Chemical stability (ultraviolet spectral changes)” value was “excellent chemical stability; also recorded: no significant changes”.

With `COc1cc(/C=C/C(=O)CC(=O)/C=C/c2ccc(O)c(OC)c2)ccc1O` [Curcumin, curcumin, reference compound], the “Chemical stability (ultraviolet spectral changes)” value is “gradually decreased over time”.
